Data: patent US10265294B2, “Compositions and methods for treating epithelial cancer” (YALE UNIVERSITY, priority 2016, dated 2019)

Experiments:
Format in all cases: cell-based, human
[1] = system: OCSC2 (chemoresistant CD44+/MyD88+ ovarian cancer stem cell clone); test: Real-time measurement of cell number/cell death and IC50, OCSC2 clone; conditions: OCSC2, 24 hours (FIG. 1G)
Experimental: CD44+/MyD88+ ovarian cancer stem cell clones (OCSC1 and OCSC2) and CD44−/MyD88− ovarian cancer cells (OCC1 and OCC2) were isolated from either tumor tissue or ascites obtained from patients diagnosed with stage III/IV serous ovarian cancer and propagated (Alvero, et al., 2009, Cell Cycle 8:158-166; Chefetz, et al., 2013, Cell Cycle 12:511-521). The epithelial nature of the isolated cells was determined by immunostaining for Ck18. Purity of the cultures based on CD44 expression by flow cytometry and chemoresistance were routinely tested. Stable expression of nuclear-restricted red fluorescent (in OCSCs) or green fluorescent proteins (in OCCs) was performed by transduction using NUCLIGHT® Red or Green Lentivirus Reagent (Essen Bioscience, Ann Arbor, Mich.). Spheroids were formed from OCSCs by culturing in ultra-low attachment multi-well plates (Corning, Inc., Corning, N.Y.).
(§1) Effect of each compound on cell morphology, growth, and viability was assessed using a kinetic live cell imaging system (Incucyte, Essen Bioscience). Proliferation was calculated as previously described (Alvero, et al., 2011, Mol. Cancer Ther. 10:1385-1393) using metrics from either confluence or fluorescent count from nuclear-restricted RFP or GFP. Cell death was quantified; similarly CELLTOX® Green Cytotoxicity Assay (Promega, Madison, Wis.). IC50 was calculated as described using GraphPad Prism (GraphPad Software Inc., LaJolla, Calif.).
A panel of four different SBP subfamilies with cytotoxic activity against chemoresistant ovarian cancer stem cells were tested for efficacy in inducing ovarian cancer stem cell death. […] The efficacy of each analog was determined based on its IC50.
TRX-E-002 exists as a racemic mixture comprised of two enantiomers, enantiomer A (TRX-E-002-1) and enantiomer B (TRX-E-002-2). Thus, the enantiomers were separated and assessed separately. […]

[2] = system: OCC1 (CD44-/MyD88- ovarian cancer cells); test: IC50 against chemosensitive ovarian cancer cells OCC1; conditions: read-out: IC50 (percentage of viable cells)
Experimental: CD44+/MyD88+ ovarian cancer stem cell clones (OCSC1 and OCSC2) and CD44−/MyD88− ovarian cancer cells (OCC1 and OCC2) were isolated from either tumor tissue or ascites obtained from patients diagnosed with stage III/IV serous ovarian cancer and propagated (Alvero, et al., 2009, Cell Cycle 8:158-166; Chefetz, et al., 2013, Cell Cycle 12:511-521). The epithelial nature of the isolated cells was determined by immunostaining for Ck18. Purity of the cultures based on CD44 expression by flow cytometry and chemoresistance were routinely tested. […]
as §1
Once the efficacy of TRX-E-002-1 against chemoresistant OCSC was established, its activity against two clones of chemosensitive ovarian cancer cells (OCC1 and OCC2) was determined.

c-Jun = test: Phosphokinase array / Western blot for phosphorylated and total c-Jun in OCSCs
Experimental: SDS-PAGE and Western blots were performed using 20 μg of total protein lysate as described in Kamsteeg, et al., 2003, Oncogene 22:2611-2620. Antibodies used were: mouse anti-phospho ERK (Santa Cruz Biotechnology, Inc., Dallas, Tex.); rabbit anti-phospho c-Jun, rabbit anti c-Jun, rabbit anti-ERK, rabbit anti-cleaved caspase 3 all from Cell Signaling Technology, Danvers, Mass.; and mouse anti-GAPDH (Sigma-Aldrich).
In order to elucidate the early pathways responsible for the sustained cytotoxic effect observed with TRX-E-002-1, a phosphokinase array was performed. The phosphokinase array detected relative phosphorylation levels of 43 different kinases involved in major signal transduction pathways.
The western blot results also validated the decrease in p-ERK in cells treated with TRX-E-002-1. […] The effect on the phosphorylation status of the kinases (upregulation of p-cJun and downregulation of p-ERK) was observed as early as 2 h post-treatment and maintained up to 24 h (FIG. 4A). The phosphorylation levels of c-Jun and ERK correlate with the differential ability of the two doses of TRX-E-002-1 to induce a sustained cytotoxic effect. […] This correlates with the ability of this dose of TRX-E-002-1 to maintain the upregulation of p-cJun and downregulation of p-ERK even when the compound is removed (FIG. 4B). […]

caspase-3/7 = test: Caspase Glo assay, caspase-3/7; conditions: 0.245 μM; at 16 and 24 h post treatment
Experimental: Total protein was extracted and measured as described in Kamsteeg, et al., 2003, Oncogene 22:2611-2620. Activity of caspase 3/7 and caspase 9 was quantified using Caspase Glo assay (Promega).
The activities of caspase-3/7 and caspase-9 were assessed at 2, 4, 6, 8, 16, and 24 hours post-treatment with TRX-E-002-1.

[3] = system: chemoresistant ovarian cancer stem cells; test: OCSC growth and morphology with TRX-E-002-1, AICAR or the combination
Experimental: The effect of each compound on cell growth was assessed using a kinetic live cell imagine system (Incucyte, Essen Bioscience). Proliferation was determined based on either confluence or fluorescent count from nuclear-restricted RFP or GFP. The IC50 values were calculated using GraphPad Prism (GraphPad Software Inc., LaJolla, Calif.). […]

In the case of `COc1cc(C2COc3c(ccc(O)c3C)C2c2ccc(O)cc2)cc(OC)c1O` (single isomer, unassigned) [TRX-E-002-1], the IC50 [1] is reported as 47 nM, the IC50 [2] is reported as 68 nM and the “total c-Jun” value (c-Jun; Western blot time course) is reported as “time-dependent increase”. For the same compound, the “levels of phosphorylated c-Jun (p-c-Jun)” value (c-Jun; compared to controls, from 2 h up to 24 h post-treatment) was “higher levels”, the caspase-3/7 activity (caspase-3/7) was “significant increase” and the “cell morphology / apoptotic cells” value ([3]; 48 hours, AICAR at 0.2 mM) was “only minimal effect”. The “effect on cell growth” value ([3]; TRX-E-002-1 25 ng/ml, mono therapies or combination) was “minimal effect”.
